ChEMBL document CHEMBL1156182 (Bioorg Med Chem Lett, 2010)
The source made the active and inactive calls. The calls are words filed in the database; no cut-off is given here.

Experiments:
[1] = target: T1, Peroxisome proliferator-activated receptor alpha (Homo sapiens) (UniProt Q07869); experiment: Transactivation of human PPARalpha LBD expressed in african green monkey Cos7 cells co-transfected with fused GAL4-DBD at 10 uM after 14 hrs by Dual-Glo Luciferase reporter gene assay; assay type: cell-based; settings: COS-7
T1 sequence (whole entry): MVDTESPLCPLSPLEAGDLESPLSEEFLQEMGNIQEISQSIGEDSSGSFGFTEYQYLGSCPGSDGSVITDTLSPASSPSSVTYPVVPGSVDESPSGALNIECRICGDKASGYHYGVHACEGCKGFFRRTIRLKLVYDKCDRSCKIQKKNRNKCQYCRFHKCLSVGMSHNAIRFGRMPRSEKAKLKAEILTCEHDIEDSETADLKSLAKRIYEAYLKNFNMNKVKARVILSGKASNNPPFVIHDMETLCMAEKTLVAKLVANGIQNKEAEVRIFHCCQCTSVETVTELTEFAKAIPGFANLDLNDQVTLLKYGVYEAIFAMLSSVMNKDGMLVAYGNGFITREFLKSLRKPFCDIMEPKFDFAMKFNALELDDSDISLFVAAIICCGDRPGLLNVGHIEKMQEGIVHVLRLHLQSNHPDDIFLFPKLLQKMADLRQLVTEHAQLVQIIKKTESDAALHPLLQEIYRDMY

[2] = target: T2, Peroxisome proliferator-activated receptor gamma (Homo sapiens, UniProt P37231)
T2 sequence (P37231 whole entry): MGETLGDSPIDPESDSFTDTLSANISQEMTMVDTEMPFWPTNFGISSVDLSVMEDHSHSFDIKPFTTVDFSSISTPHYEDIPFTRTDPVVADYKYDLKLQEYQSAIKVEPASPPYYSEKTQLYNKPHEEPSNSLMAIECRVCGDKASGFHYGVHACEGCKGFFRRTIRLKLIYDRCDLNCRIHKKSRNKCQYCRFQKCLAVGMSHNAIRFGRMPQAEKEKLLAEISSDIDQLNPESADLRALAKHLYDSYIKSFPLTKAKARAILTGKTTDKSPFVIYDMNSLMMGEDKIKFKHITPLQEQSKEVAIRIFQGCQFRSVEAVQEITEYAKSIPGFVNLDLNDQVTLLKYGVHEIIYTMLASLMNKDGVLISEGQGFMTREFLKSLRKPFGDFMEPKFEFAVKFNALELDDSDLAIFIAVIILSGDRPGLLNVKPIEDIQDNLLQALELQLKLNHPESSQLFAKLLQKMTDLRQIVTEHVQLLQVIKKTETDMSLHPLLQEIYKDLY

[3] = target: T3, Peroxisome proliferator-activated receptor gamma (Homo sapiens) (UniProt P37231); experiment: Agonist activity at human PPARgamma LBD expressed in african green monkey Cos7 cells co-transfected with fused GAL4-DBD after 14 hrs by Dual-Glo Luciferase reporter gene transactivation assay; assay type: functional, cell-based; settings: COS-7
T3 sequence (whole entry): T2 sequence (P37231 whole entry)

[4] = target: T3, Peroxisome proliferator-activated receptor gamma (Homo sapiens); experiment: Transactivation of human PPARgamma LBD expressed in african green monkey Cos7 cells co-transfected with fused GAL4-DBD at 10 uM after 14 hrs by Dual-Glo Luciferase reporter gene assay; assay type: cell-based; settings: COS-7
[5] = target: T3, Peroxisome proliferator-activated receptor gamma (Homo sapiens); experiment: Transactivation of human PPARgamma LBD expressed in african green monkey Cos7 cells co-transfected with fused GAL4-DBD after 14 hrs by Dual-Glo Luciferase reporter gene assay; settings: COS-7

Row | Activity [1] | EC50 [2] [µM] | Activity [3] | Activity [4] | Activity [5] | SMILES
1 | inactive | 10.8 |  |  |  | O=C(O)C(Sc1nc(Cl)cc(NCCc2ccccc2)n1)c1cccc2ccccc12 (stereo not given)
2 | inactive | 13 |  |  |  | O=C(O)C(Sc1nc(Cl)cc(Nc2ccc(F)cc2)n1)c1cccc2ccccc12 (stereo not given)
3 | inactive | 7.6 |  |  |  | CC(C)c1ccc(Nc2cc(Cl)nc(SC(C(=O)O)c3cccc4ccccc34)n2)cc1 (stereo not given)
4 | inactive | 7.3 |  |  |  | O=C(O)C(Sc1nc(Cl)cc(Nc2cccc(Cl)c2)n1)c1cccc2ccccc12 (stereo not given)
5 | inactive | 8.9 |  |  |  | O=C(O)C(Sc1nc(Cl)cc(NCCCc2ccccc2)n1)c1cccc2ccccc12 (stereo not given)
6 | inactive | 6.2 | inactive |  |  | Cc1cccc(Nc2cc(Cl)nc(SC(C(=O)O)c3cccc4ccccc34)n2)c1C (stereo not given)
7 | inactive | 8.9 |  |  |  | CC(C)CCNc1cc(Cl)nc(SC(C(=O)O)c2cccc3ccccc23)n1 (stereo not given)
8 | inactive | 7.8 |  |  |  | Cc1ccc(Nc2cc(Cl)nc(SC(C(=O)O)c3cccc4ccccc34)n2)cc1C (stereo not given)
9 | inactive | 6.9 |  |  |  | O=C(O)C(Sc1nc(Cl)cc(Nc2ccc3ccccc3c2)n1)c1cccc2ccccc12 (stereo not given)
10 | inactive |  |  |  |  | CCc1ccc(CCOc2ccc(CC3SC(=O)NC3=O)cc2)nc1 (stereo not given)
11 | inactive |  |  | inactive | inactive | CCCCNc1cc(Cl)nc(SC(C(=O)O)c2cccc3ccccc23)n1 (stereo not given)
12 | inactive | 4.5 |  |  |  | Cc1cccc(Nc2cc(Cl)nc(SC(C(=O)O)c3ccc(-c4ccccc4)c4ccccc34)n2)c1C (stereo not given)
13 |  | 3.6 |  |  |  | CCCCCCC(Sc1nc(Cl)cc(Nc2cccc(C)c2C)n1)C(=O)O (stereo not given)
14 | inactive | 9 |  |  |  | O=C(O)C(Sc1nc(Cl)cc(Nc2ccc(Cl)cc2)n1)c1cccc2ccccc12 (stereo not given)
15 | inactive | 6.8 |  |  |  | O=C(O)C(Sc1nc(Cl)cc(Nc2ccc3c(c2)CCC3)n1)c1cccc2ccccc12 (stereo not given)
